Laboratory results as given in publication PMC6934184, “Selective DNA-PKcs inhibition extends the therapeutic index of localized radiotherapy and chemotherapy” (The Journal of Clinical Investigation, 2019).

Target: T1, ZAK (Homo sapiens, UniProt Q9NYL2)
T1 construct: purchased Thermo Fisher Scientific (Life Technologies) SelectScreen
Test: SelectScreen LanthaScreen
Type: binding
Details: read-out: % displacement
Summary of the method: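 Percent values come from Thermo SelectScreen profiling of NU5455, combining activity and binding assays. CSF1R was run in Z'LYTE format at Km app ATP, and CAMK1 in Adapta format with ATP listed at 10.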

T1 sequence (Q9NYL2 whole entry): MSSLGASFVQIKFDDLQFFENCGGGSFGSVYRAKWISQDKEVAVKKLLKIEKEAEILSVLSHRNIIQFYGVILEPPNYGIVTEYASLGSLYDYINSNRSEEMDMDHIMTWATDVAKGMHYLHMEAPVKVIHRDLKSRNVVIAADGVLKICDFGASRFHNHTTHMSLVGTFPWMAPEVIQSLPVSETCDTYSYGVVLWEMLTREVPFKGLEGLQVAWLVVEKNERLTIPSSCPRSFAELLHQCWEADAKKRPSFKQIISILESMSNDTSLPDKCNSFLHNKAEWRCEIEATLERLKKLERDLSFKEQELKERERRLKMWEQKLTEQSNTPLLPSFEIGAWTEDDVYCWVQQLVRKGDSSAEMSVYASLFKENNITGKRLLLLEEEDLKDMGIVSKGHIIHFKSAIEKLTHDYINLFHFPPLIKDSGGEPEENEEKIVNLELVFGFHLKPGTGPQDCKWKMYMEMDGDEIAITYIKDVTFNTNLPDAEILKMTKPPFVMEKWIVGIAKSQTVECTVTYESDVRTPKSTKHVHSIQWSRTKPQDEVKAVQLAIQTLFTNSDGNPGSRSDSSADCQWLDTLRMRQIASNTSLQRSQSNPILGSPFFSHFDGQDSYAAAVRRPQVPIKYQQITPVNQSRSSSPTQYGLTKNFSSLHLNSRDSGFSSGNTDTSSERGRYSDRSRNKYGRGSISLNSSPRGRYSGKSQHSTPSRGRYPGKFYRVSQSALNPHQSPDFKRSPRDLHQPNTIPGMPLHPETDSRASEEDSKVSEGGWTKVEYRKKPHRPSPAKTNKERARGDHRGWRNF

Work on `CN(C(=O)CN1CCOCC1)c1ccc2sc3c(-c4cccc5c(=O)cc(N6CC7CCC(C6)O7)oc45)cccc3c2c1` [NU5455] yielded an inhibition at 1 µM of -0.7%.
